Where a SMILES comes first, the peptide text is derived from it. Bridges are numbered along the chain shown (N, C = ends). Where no end group is shown, it is not given here.
Columns and labels:
HtrA1 = assay: phage spot ELISA on HtrA1; assay type: binding; conditions: Fig 9A; for ELISA s/n: Spot ELISA signal/noise; for ELISA signal: Spot ELISA
From the text: To determine the performance of the libraries for ligand discovery we chose a panel of eight protein targets, which have no structural homology and a wide mass range (Fig 7C). We screened these eight targets with solution panning strategy and two additional plate panning for CD8α/β and CD28, thus ten panning campaigns in total. We consider clones showing spot phage ELISA signal > 0.3 and signal/noise ratio > 2 as positive hits. […] We also obtained the NGS data for these screening and the ranking of clones for their enrichment along the rounds of screening was analyzed and considered the top-ranking clones as potential hits. Based on their sequence diversity we selected 16 potential hits spanning five protein targets for peptide synthesis in their linear form. Seven of these are hits with positive phage ELISA signal and nine were selected based on NGS ranking without spot ELISA available. Subsequently, we conducted in vitro folding experiments on these peptides in various buffers.
(§1) The 5ji4 libraries were constructed following the Kunkel mutagenesis method and the solution panning protocol was followed as previously described. After four to five rounds of binding selection, while eluted pool was subjected to NGS analysis, individual phage clones were also picked and analyzed with phage spot ELISA. Positive clones were subjected to SANGER sequencing.
Among these five hits, A7, which is the SANGER hit, was picked for affinity maturation. Following the same strategy, one soft- and one hard-randomization library was designed targeting the 5JI4 variable regions 1 and 2, respectively. Two libraries were each panned as previously described. Both phage spot ELISA coupled with SANGER sequencing and NGS analysis were applied after affinity maturation.

human full-length HtrA1 [1] = target: T1, human full-length HtrA1 (Homo sapiens, UniProt Q92743); assay: HtrA1 enzymatic assay; assay type: biochemical
T1 construct: we used human full-length HtrA1 (HtrA1), which was expressed in Trichoplusia ni cells; made in house; host or cells: Trichoplusia ni cells
Protocol: For enzymatic assays we used human full-length HtrA1 (HtrA1), which was expressed in Trichoplusia ni cells and purified as described. Enzyme assays with the fluorescence-quenched synthetic substrate Mca-[…](Dnp)KK (H2-OPT) were carried out essentially as described. […] A 10 mM stock solution of H2-OPT in DMSO was diluted with water, prewarmed at 37°C and then added to the HCP-enzyme mixtures. The final concentrations in the reaction mixtures were: 1 nM HtrA1, 5 μM H2-OPT, 0.1% DMSO and varied concentrations of HCP. Substrate cleavage was measured at 37°C on a SPECTRAmax M5 microplate reader (Molecular Devices) and the initial rates of cleavage determined. The IC50 values were determined by fitting the data to the 4 parameter sigmoid function.

CD8α-Fc = target: T2, CD8α-Fc (Homo sapiens, UniProt P01732); assay: SPR binding to CD8α-Fc; conditions: folded synthetic peptide; Biacore S200, 25°C, HBS-EP w. 5% DMSO, single-cycle kinetics; kinetic fitting (values not marked *); N.B. = no binding
T2 construct: purchased R&D AVI10927
Protocol: (§2) Peptide synthesis was done by CSBio (Menlo Park, CA). The linear peptides were synthesized as free N- and C- terminus. For the small-scale in vitro folding test, linear peptides were dissolved in 100% DMSO as 10 mg/ml stock, then 1/20 diluted into folding buffers. Five different buffer conditions were tested: [1] 0.1 M NH4HCO3 pH 9.0, 2 mM reduced glutathione, 0.5 mM oxidized glutathione, and 9% DMSO; [2] 0.1 M NH4HCO3 pH 8.0, 1 mM reduced glutathione, and 55% DMSO; [3] dI-water w. 5% DMSO; [4] 1X PBS pH 7.4 w. 10% DMSO; and [5] 1X PBS pH 7.4 w. 50% DMSO. Refolding was promoted by incubation at R.T. with gentle rotation and monitored by LC-MS for disulfide bond formation. […] Therefore, buffer condition was used as a universal refolding buffer for all HCP peptides. After refolding, peptides with three disulfide bonds were purified by HPLC according to standard procedure and subjected to SPR measurements.
(§3) All binding experiments were performed using a Biacore S200 instrument (GE Healthcare) at 25°C at a flow rate of 30 μl/min in HBS-EP buffer (Cytiva, #BR100188) w. 5% DMSO. The kinetics and affinity measurements were carried out using single-cycle kinetics (SCK) and referenced by subtracting the signal from the blank flow cell. […]

CD8α = assay: phage spot ELISA on CD8α; assay type: binding
From the text: (§4) To determine the performance of the libraries for ligand discovery we chose a panel of eight protein targets, which have no structural homology and a wide mass range (Fig 7C). We screened these eight targets with solution panning strategy and two additional plate panning for CD8α/β and CD28, thus ten panning campaigns in total. We consider clones showing spot phage ELISA signal > 0.3 and signal/noise ratio > 2 as positive hits. At least one binding hit was discovered for nine out of the ten panning campaigns, surpassing the success rate of the best DCP scaffolds reported previously. We also obtained the NGS data for these screening and the ranking of clones for their enrichment along the rounds of screening was analyzed and considered the top-ranking clones as potential hits. Based on their sequence diversity we selected 16 potential hits spanning five protein targets for peptide synthesis in their linear form. Seven of these are hits with positive phage ELISA signal and nine were selected based on NGS ranking without spot ELISA available. Subsequently, we conducted in vitro folding experiments on these peptides in various buffers. We observed a strong propensity for spontaneous folding regardless of the buffer condition. All HCP hits tested successfully folded into three-disulfide-containing product within two days in a universal buffer system (PBS, pH 7.4, 50% DMSO) without the need for a redox pair, as shown in Fig 8A. The binding of these folded peptides to their respective target proteins was confirmed using SPR (Table 4 and S1 Data) and binding kinetics are exemplified by the high-affinity peptide 5ji4-CRD7-2 (see Fig 8B). Among seven selected ELISA-positive hits, all of them were successfully synthesized and in vitro folded with three disulfide bonds and five were proven to be validated binders by SPR (Table 4). Nine peptides selected from the NGS ranking were synthesized and folded with the expected number of disulfide bonds and five of them bound to their target with affinities in the μM range as determined by SPR (Table 4). In general, binding affinities for these SPR-validated initial hits are weak, with Kd values in the micromolar range and fast on- and off-rates. There are two exceptions with binding affinities in the nanomolar range.
as §1

CD28 = assay: phage spot ELISA on CD28; assay type: binding
From the text: as §4, §1

CD28-Fc = CD28-Fc (Homo sapiens, UniProt P10747); assay: SPR binding to CD28-Fc; parameters: purchased R&D 342-CD-200; conditions: folded synthetic peptide; Biacore S200, 25°C, HBS-EP w. 5% DMSO, single-cycle kinetics; kinetic fitting (values not marked *); N.B. = no binding
Protocol: as §2, §3

Fz7CRD-Fc = target: T3, Fz7CRD-Fc (Homo sapiens, UniProt O75084); assay: SPR binding to Fz7CRD-Fc; conditions: folded synthetic peptide; Biacore S200, 25°C, HBS-EP w. 5% DMSO, single-cycle kinetics; kinetic fitting (values not marked *); N.B. = no binding
T3 construct: Fz7CRD-Fc (R&D, #6178-FZ-50); purchased R&D 6178-FZ-50

VEGF_(8-109) = VEGF_(8-109) (UniProt P15692); assay: SPR; Biacore S200, target on Series S Sensor Chip SA, peptide flowed, single-cycle kinetics, three-fold dilution series from approximately 100 μM, 25°C, 30 μl/min, HBS-EP with 5% DMSO; steady-state equilibrium model
RSP02-Fc = target: T4, RSP02-Fc (UniProt Q6UXX9 22-243); assay: SPR; Biacore S200, Fc-fusion target on Sensor Chip Protein A, peptide flowed, single-cycle kinetics, three-fold dilution series from approximately 100 μM, 25°C, 30 μl/min, HBS-EP with 5% DMSO; 1:1 binding (kinetic) model, or no binding seen; conditions: both partners purified
T4 construct: bought as Fc fusion; captured on a Protein A sensor chip by its Fc; source: bought: Biolegend, #786206

HtrA1^PD-S/A = target: T5, HtrA1^PD-S/A (human, UniProt Q92743 161-379, S328A); assay: SPR; Biacore S200, HtrA1^PD-S/A on Series S Sensor Chip SA, peptide flowed, 25°C, 30 μl/min, HBS-EP with 5% DMSO; fit model not told for these values; conditions: both partners purified
T5 construct: serine protease HtrA1, D161-K379 with S328A; source: E. coli, produced in-house (Genentech)

human full-length HtrA1 [2] = target: human full-length HtrA1 (human, UniProt Q92743 23-480); assay: cell-based or functional assay
[3] = phage spot ELISA of the clone, positive hit: signal > 0.3 and signal/noise > 2
[4] = phage spot ELISA signal/noise ratio

T2 sequence (P01732 22-182 limits assumed): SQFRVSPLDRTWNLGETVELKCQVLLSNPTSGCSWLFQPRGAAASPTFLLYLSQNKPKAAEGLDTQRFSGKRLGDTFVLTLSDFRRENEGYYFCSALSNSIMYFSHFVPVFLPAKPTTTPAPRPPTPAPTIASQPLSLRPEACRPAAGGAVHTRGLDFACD
Chain of CD28-Fc (P10747 19-152 limits assumed): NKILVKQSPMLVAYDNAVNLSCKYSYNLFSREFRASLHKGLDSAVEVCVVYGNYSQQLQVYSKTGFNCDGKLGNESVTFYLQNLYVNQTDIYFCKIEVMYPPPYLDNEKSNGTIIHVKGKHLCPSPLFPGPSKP
T1 sequence (Q92743 23-480): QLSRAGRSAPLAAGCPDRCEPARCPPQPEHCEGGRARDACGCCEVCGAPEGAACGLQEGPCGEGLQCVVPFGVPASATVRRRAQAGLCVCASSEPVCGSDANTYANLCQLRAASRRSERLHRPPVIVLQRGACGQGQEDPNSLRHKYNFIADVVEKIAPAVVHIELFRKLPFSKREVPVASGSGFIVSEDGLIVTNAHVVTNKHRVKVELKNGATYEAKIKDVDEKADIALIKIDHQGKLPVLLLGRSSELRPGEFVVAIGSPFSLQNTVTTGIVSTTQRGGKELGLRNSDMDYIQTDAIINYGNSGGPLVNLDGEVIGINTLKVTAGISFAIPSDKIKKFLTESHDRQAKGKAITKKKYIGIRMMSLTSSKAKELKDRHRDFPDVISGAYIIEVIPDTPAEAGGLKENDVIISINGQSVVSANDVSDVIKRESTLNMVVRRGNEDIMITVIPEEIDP
T5 sequence (Q92743 161-379 S328A): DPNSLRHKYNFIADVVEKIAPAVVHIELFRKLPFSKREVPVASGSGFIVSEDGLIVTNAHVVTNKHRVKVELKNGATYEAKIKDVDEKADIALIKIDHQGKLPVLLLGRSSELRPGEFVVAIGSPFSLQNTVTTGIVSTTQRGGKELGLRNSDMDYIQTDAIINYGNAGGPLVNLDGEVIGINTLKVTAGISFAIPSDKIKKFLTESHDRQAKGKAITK
T4 sequence (Q6UXX9 22-243): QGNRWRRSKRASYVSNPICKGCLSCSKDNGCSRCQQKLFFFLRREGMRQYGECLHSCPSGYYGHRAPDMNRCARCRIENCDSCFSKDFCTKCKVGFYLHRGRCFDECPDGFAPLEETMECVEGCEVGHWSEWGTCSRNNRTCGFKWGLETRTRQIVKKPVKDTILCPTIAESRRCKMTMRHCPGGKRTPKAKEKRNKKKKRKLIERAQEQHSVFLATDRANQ
Chain of human full-length HtrA1 (human, UniProt Q92743 23-480) (Q92743 23-480): as the sequence (Q92743 23-480) above

CC[C@H](C)[C@@H]1NC(=O)[C@H]([C@@H](C)O)NC(=O)[C@@H]2CSSC[C@H](NC(=O)[C@H](CCC(=O)O)NC(=O)[C@H](C)NC(=O)[C@H](CO)NC(=O)[C@H](CO)NC(=O)[C@H]([C@@H](C)O)NC(=O)[C@H](CC(C)C)NC(=O)[C@H](Cc3ccccc3)NC(=O)[C@H](Cc3c[nH]cn3)NC(=O)[C@H](Cc3c[nH]c4ccccc34)NC(=O)CNC(=O)[C@H](CCCNC(=N)N)NC(=O)[C@H](CC(C)C)NC1=O)C(=O)N[C@@H](CCC(=O)O)C(=O)N[C@@H](CCCNC(=N)N)C(=O)N[C@@H](CC(C)C)C(=O)N[C@H]1CSSC[C@H](NC(=O)[C@H]([C@@H](C)O)NC(=O)[C@H](CCCNC(=N)N)NC(=O)[C@H](CC(C)C)NC(=O)CNC(=O)[C@H](CC(C)C)NC(=O)[C@H](CCCNC(=N)N)NC(=O)[C@H](CC(=O)O)NC1=O)C(=O)N[C@@H](CCCNC(=N)N)C(=O)N[C@@H](C(C)C)C(=O)N[C@@H](Cc1c[nH]cn1)C(=O)N[C@H](C(=O)NCC(=O)O)CSSC[C@H](NC(=O)[C@@H]1CCCN1)C(=O)N[C@@H](CCC(=O)O)C(=O)N2 [5ji4_A7] (H-PCECTILRGWHFLTSSAECERLCDRLGLRTCRVHCG-OH; disulfide 2-35, 4-19, 23-31)
ELISA s/n (HtrA1): 5.8
ELISA signal (HtrA1): 3.36
inhibition of HtrA1 activity (human full-length HtrA1 [1]; maximal inhibition in the concentration-response): complete inhibition

P C D C DVNGETYTVSSSEE C EPL C LNWLSSL C RVH C G (bicyclic or more) [5ji4-CD8-16, 5JI4 library hit for CD8α, synthesized and folded in vitro]
SPR Kd (CD8α-Fc): N.B.
ELISA signal (CD8α; [3]): 3.43
ELISA s/n (CD8α; [4]): 37.34

P C E C DVNGETYTVSSSEG C ERL C SWDQGKW C RVH C G (bicyclic or more) [5ji4-CD28-7, 5JI4 library hit for CD28, synthesized and folded in vitro]
ELISA signal (CD28; [3]): 0.25
ELISA s/n (CD28; [4]): 3.48
SPR Kd (CD28-Fc): N.B.

P C E C EDTTFFIIFNSSEE C ERL C RKLGVTN C RVH C G (bicyclic or more) [5ji4-CD28-4, 5JI4 library hit for CD28, synthesized and folded in vitro]
SPR Kd (CD28-Fc): N.B.

P C E C LVTPYKDDYKSSEE C ERL C RKLGVTN C RVH C G (bicyclic or more) [5ji4-CD8-8, 5JI4 library hit for CD8α, synthesized and folded in vitro]
SPR Kd (CD8α-Fc): N.B.

P C E C PIRPYGVPVKSSEE C ERL C MNDWATT C RVH C G (bicyclic or more) [5ji4-CRD7-5, 5JI4 library hit for CRD7, synthesized and folded in vitro]
SPR Kd (Fz7CRD-Fc): N.B.

PCECDVNGETYTVSSSEECERLCRKLGVTNCRVHCG (also: bicyclic or more (positions not given here)) [5ji4, reference compound]
ELISA s/n (HtrA1): 1.4
ELISA signal (HtrA1): 0.83
IC50 (human full-length HtrA1 [1]; 1 nM HtrA1, 5 μM H2-OPT substrate, 0.1% DMSO, 15 min pre-incubation, 37°C, pH 8.0, 4 parameter fit): not inhibitory

PCECFMYDILVGLASSEECKRLCWGFGQSDCRVHCG [5ji4-VEGF-5]
Kd (VEGF_(8-109)): 86 µM

B1: 5ji4-RSP-1 (peptide)
chain: PCECDVNGETYTVSSSEECEPLCWMYNEHFCRVHCG
notes: hit from the 5JI4 scaffold phage libraries; free N- and C-termini; three disulfide bonds; source: synthetic peptide (CSBio), folded in vitro, HPLC purified
Kd (RSP02-Fc): 22 ± 17 µM

B2: 5ji4-A7 (peptide)
chain: H-PCECTILRGWHFLTSSAECERLCRKLGVTNCRVHCG-OH
modifications: disulfide (positions not given here); also: three disulfide bonds, pairing not given here
Kd (HtrA1^PD-S/A): 2.72 µM

PCECTILRGWHFLTSSAECERLCRKLGVTNCRVHCG
inhibition of HtrA1 enzyme activity (cleavage of the fluorescence-quenched substrate H2-OPT), IC50 (human full-length HtrA1 [2]): 38 µM
